According to patent US9682995B2, “Amino-substituted isothiazoles” (BAYER PHARMA AKTIENGESELLSCHAFT, priority 2013, dated 2017):

What was measured:
human kinase Mps-1 = human kinase Mps-1 (Homo sapiens (Human), UniProt P33981); assay: Mps-1 kinase assay (TR-FRET); type: biochemical; conditions: 10 μM ATP; read-out: Mps1 avg (IC50 [mol/l])
Protocol: The human kinase Mps-1 phosphorylates a biotinylated substrate peptide. Detection of the phosphorylated product is achieved by time-resolved fluorescence resonance energy transfer (TR-FRET) from Europium-labelled anti-phospho-Serine/Threonine antibody as donor to streptavidin labelled with cross-linked allophycocyanin (SA-XLent) as acceptor. Compounds are tested for their inhibition of the kinase activity.
N-terminally GST-tagged human full length recombinant Mps-1 kinase (purchased from Invitrogen, Karslruhe, Germany, cat. no PV4071) was used. As substrate for the kinase reaction a biotinylated peptide of the amino-acid sequence biotin-Ahx-PWDPDDADITEILG (C-terminus in amide form, purchased from Biosyntan GmbH, Berlin) was used.
For the assay 50 nl of a 100-fold concentrated solution of the test compound in DMSO was pipetted into a black low volume 384 well microtiter plate (Greiner Bio-One, Frickenhausen, Germany), 2 μl of a solution of Mps-1 in assay buffer [0.1 mM sodium-ortho-vanadate, 10 mM MgCl2, 2 mM DTT, 25 mM Hepes pH 7.7, 0.05% BSA (w/v), 0.001% Pluronic F-127] were added and the mixture was incubated for 15 min at 22° C. to allow pre-binding of the test compounds to Mps-1 before the start of the kinase reaction. Then the kinase reaction was started by the addition of 3 μl of a solution of 16.7 μM adenosine-tri-phosphate (ATP, 16.7 μM=>final conc. in the 5 μl assay volume is 10 μM) and peptide substrate (1.67 μM=>final conc. in the 5 μl assay volume is 1 μM) in assay buffer and the resulting mixture was incubated for a reaction time of 60 min at 22° C. The concentration of Mps-1 in the assay was adjusted to the activity of the enzyme lot and was chosen appropriate to have the assay in the linear range, typical enzyme concentrations were in the range of about 0.5 nM (final conc. in the 5 μl assay volume). The reaction was stopped by the addition of 5 μl of a solution of TR-FRET detection reagents (100 mM Hepes pH 7.4, 0.1% BSA, 40 mM EDTA, 140 nM Streptavidin-XLent [#61GSTXLB, Fa. Cis Biointernational, Marcoule, France], 1.5 nM anti-phospho(Ser/Thr)-Europium-antibody [#AD0180, PerkinElmer LAS, Rodgau-Jugesheim, Germany]. Instead of the 1.5 nM anti-phospho(Ser/Thr)-Europium-antibody a mixture of 2 nM unlabeled anti-phospho ser/thr-pro antibody MPM-2 [Millipore cat. #05-368] and 1 nM LANCE EU-W1024 labeled anti-mouse IgG antibody [Perkin-Elmer, product no. AD0077] can be used).
The resulting mixture was incubated 1 h at 22° C. to allow the binding of the phosphorylated peptide to the anti-phospho(Ser/Thr)-Europium-antibody. Subsequently the amount of phosphorylated substrate was evaluated by measurement of the resonance energy transfer from the Europium-labelled anti-phospho(Ser/Thr) antibody to the Streptavidin-XLent. Therefore, the fluorescence emissions at 620 nm and 665 nm after excitation at 350 nm was measured in a Viewlux TR-FRET reader (PerkinElmer LAS, Rodgau-Jugesheim, Germany). The “blank-corrected normalized ratio” (a Viewlux specific readout, similar to the traditional ratio of the emissions at 665 nm and at 622 nm, in which blank and Eu-donor crosstalk are subtracted from the 665 nm signal before the ratio is calculated) was taken as the measure for the amount of phosphorylated substrate. The data were normalised (enzyme reaction without inhibitor=0% inhibition, all other assay components but no enzyme=100% inhibition).

[1] = tested on: spindle assembly checkpoint; assay: SAC-Formation - Nocodazole-Induced Assay; type: cell-based; conditions: Homo sapiens; HeLa cells, nocodazole 0.1 μg/ml, 24 h, phosphorylated histone H3 on serine 10
How it was run: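 HeLa cells were given nocodazole at 0.1 μg/ml final together with compounds (0.005–20 μM, 0.5% DMSO) for 24 h at 37° C. Mitotic cells were counted by phospho-histone H3 Ser10 immunostaining, with cell number from HOECHST 33342, by high-content imaging. The loss of mitotic cells was fitted with a four-parameter Hill equation.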

human kinase Mps-1, sequence (P33981 whole entry): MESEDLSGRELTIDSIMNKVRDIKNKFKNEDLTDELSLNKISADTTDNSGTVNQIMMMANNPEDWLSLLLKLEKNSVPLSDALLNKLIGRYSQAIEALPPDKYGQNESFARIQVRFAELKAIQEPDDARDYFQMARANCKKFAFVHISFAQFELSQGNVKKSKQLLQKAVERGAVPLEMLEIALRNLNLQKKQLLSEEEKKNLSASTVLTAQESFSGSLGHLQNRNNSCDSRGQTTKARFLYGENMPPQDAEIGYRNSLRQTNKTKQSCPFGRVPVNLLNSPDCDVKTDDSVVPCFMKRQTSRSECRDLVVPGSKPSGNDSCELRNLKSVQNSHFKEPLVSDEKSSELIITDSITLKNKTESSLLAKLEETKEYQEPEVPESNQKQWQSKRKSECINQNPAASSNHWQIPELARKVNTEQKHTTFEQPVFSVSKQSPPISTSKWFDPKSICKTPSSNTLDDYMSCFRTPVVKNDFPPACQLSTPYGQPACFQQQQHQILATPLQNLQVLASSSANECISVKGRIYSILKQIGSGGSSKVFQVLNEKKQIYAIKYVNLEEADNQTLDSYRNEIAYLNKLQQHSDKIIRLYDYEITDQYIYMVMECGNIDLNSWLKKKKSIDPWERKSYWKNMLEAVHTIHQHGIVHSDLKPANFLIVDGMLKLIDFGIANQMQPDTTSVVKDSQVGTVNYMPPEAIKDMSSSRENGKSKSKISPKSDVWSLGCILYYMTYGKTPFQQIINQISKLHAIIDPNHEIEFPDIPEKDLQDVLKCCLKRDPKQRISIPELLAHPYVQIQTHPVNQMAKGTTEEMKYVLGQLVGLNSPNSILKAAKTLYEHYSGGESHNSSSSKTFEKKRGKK

| Compound | IC50 (human kinase Mps-1) [nM] | IC50 [1] [nM] |
| --- | --- | --- |
| Cc1nsc(Nc2cncc(C(=O)N3CCOCC3)n2)c1C(=O)Nc1ccc(F)c(F)c1 [Example 107, N-(3,4-Difluorophenyl)-3-methyl-5-{[6-(morpholin-4-ylcarbonyl)pyrazin-2-yl]amino}-1,2-thiazole-4-carboxamide] | > 20000 | 340 |
| COc1ccc(NC(=O)c2c(C)nsc2Nc2nc3c(C(F)(F)F)cccc3s2)cc1F [Example 47, N-(3-Fluoro-4-methoxyphenyl)-3-methyl-5-{[4-(trifluoromethyl)-1,3-benzothiazol-2-yl]amino}-1,2-thiazole-4-carboxamide] | > 20000 | 92 |
| CCc1ccccc1NC(=O)c1c(C)nsc1Nc1nc(C)nc2sccc12 [Example 38, N-(2-Ethylphenyl)-3-methyl-5-[(2-methylthieno[2,3-d]pyrimidin-4-yl)amino]-1,2-thiazole-4-carboxamide] | > 20000 | 690 |
| COc1ccc(NC(=O)c2c(C)nsc2Nc2ncccc2C#N)cn1 [Example 36, 5-[(3-Cyanopyridin-2-yl)amino]-N-(6-methoxypyridin-3-yl)-3-methyl-1,2-thiazole-4-carboxamide] | > 20000 | 1600 |
| Cc1nsc(Nc2nc3c(C(F)(F)F)cccc3s2)c1C(=O)Nc1ccc(Cl)c(Cl)c1 [Example 102, N-(3,4-Dichlorophenyl)-3-methyl-5-{[4-(trifluoromethyl)-1,3-benzothiazol-2-yl]amino}-1,2-thiazole-4-carboxamide] | > 20000 | 220 |
| CCc1ccccc1NC(=O)c1c(C)nsc1Nc1nc2ccccc2nc1C [Example 21, N-(2-Ethylphenyl)-3-methyl-5-[(3-methylquinoxalin-2-yl)amino]-1,2-thiazole-4-carboxamide] | > 20000 | 280 |
| COc1ccc(NC(=O)c2c(C)nsc2Nc2cnc3cccc(C)c3n2)cn1 [Example 22, N-(6-methoxypyridin-3-yl)-3-methyl-5-[(8-methylquinoxalin-2-yl)amino]-1,2-thiazole-4-carboxamide] | > 20000 | 210 |
| Cc1nsc(Nc2ccc(C#N)cn2)c1C(=O)Nc1ccc(OC(C)C)nc1 [Example 110, 5-[(5-Cyanopyridin-2-yl)amino]-N-(6-isopropoxyridin-3-yl)-3-methyl-1,2-thiazole-4-carboxamide] | > 20000 | 650 |
| CNC(=O)c1ccnc(Nc2snc(C)c2C(=O)Nc2ccc(F)c(F)c2)c1 [Example 108, 2-({4-[(3,4-Difluorophenyl)-carbamoyl]-3-methyl-1,2-thiazol-5-yl}amino)-N-methyliso-nicotinamide] | > 20000 | 1800 |
| COc1ccc(NC(=O)c2c(C)nsc2Nc2nccnc2C#N)cn1 [Example 24, 5-[(3-Cyanopyrazin-2-yl)amino]-N-(6-methoxypyridin-3-yl)-3-methyl-1,2-thiazole-4-carboxamide] | > 20000 | 3800 |
| CCOC(=O)c1cnc(Nc2snc(C)c2C(=O)Nc2ccc(OC)nc2)s1 [Example 29, Ethyl 2-({4-[(6-methoxypyridin-3-yl)carbamoyl]-3-methyl-1,2-thiazol-5-yl}amino)-1,3-thiazole-5-carboxylate] | > 20000 | 310 |
| CCc1ccccc1NC(=O)c1c(C)nsc1Nc1cc(C(F)(F)F)ccn1 [Example 18, N-(2-Ethylphenyl)-3-methyl-5-{[4-(trifluoromethyl)pyridin-2-yl]amino}-1,2-thiazole-4-carboxamide] | > 20000 | 150 |
| Cc1nsc(Nc2cc(C#N)ccn2)c1C(=O)Nc1ccc(F)c(F)c1 [Example 27, 5-[(4-Cyanopyridin-2-yl)amino]-N-(3,4-difluorophenyl)-3-methyl-1,2-thiazole-4-carboxamide] | > 20000 | 110 |
| CCNC(=O)c1csc(Nc2snc(C)c2C(=O)Nc2ccc(F)c(F)c2)n1 [Example 99, N-(3,4-Difluorophenyl)-5-{[4-(ethylcarbamoyl)-1,3-thiazol-2-yl]amino}-3-methyl-1,2-thiazole-4-carboxamide] | > 20000 | 20000 |
| Cc1nsc(Nc2cnc3ccccc3n2)c1C(=O)Nc1ccc(OC(C)C)nc1 [Example 122, N-(6-Isopropoxypyridin-3-yl)-3-methyl-5-(quinoxalin-2-ylamino)-1,2-thiazole-4-carboxamide] | > 20000 | 59 |

Results, then the compound that gave them:

| IC50 (human kinase Mps-1) [nM] | IC50 [1] [nM] | Compound |
| --- | --- | --- |
| > 20000 | 51 | CCc1ccccc1NC(=O)c1c(C)nsc1Nc1cnc2ccccc2n1 [Example 19, N-(2-Ethylphenyl)-3-methyl-5-(quinoxalin-2-ylamino)-1,2-thiazole-4-carboxamide] |
| > 20000 | 680 | CCc1ccccc1NC(=O)c1c(C)nsc1Nc1ccnc(C#N)n1 [Example 6, 5-[(2-Cyanopyrimidin-4-yl)amino]-N-(2-ethylphenyl)-3-methyl-1,2-thiazole-4-carboxamide] |
| > 20000 | 260 | Cc1nsc(Nc2cncc(C(=O)N3CCCC3)n2)c1C(=O)Nc1ccc(F)c(F)c1 [Example 106, N-(3,4-Difluorophenyl)-3-methyl-5-{[6-(pyrrolidin-1-ylcarbonyl)pyrazin-2-yl]amino}-1,2-thiazole-4-carboxamide] |
| > 20000 | 1200 | CCOC(=O)c1cnc(Nc2snc(C)c2C(=O)Nc2ccc(F)c(F)c2)o1 [Example 96, Ethyl 2-({4-[(3,4-difluorophenyl)carbamoyl]-3-methyl-1,2-thiazol-5-yl}amino)-1,3-oxazole-5-carboxylate] |
| > 20000 | 270 | COc1ncc(NC(=O)c2c(C)nsc2Nc2ccc(C#N)cn2)cc1C [Example 120, 5-[(5-Cyanopyridin-2-yl)amino]-N-(6-methoxy-5-methylpyridin-3-yl)-3-methyl-1,2-thiazole-4-carboxamide] |
| > 20000 | 260 | COc1ccc(NC(=O)c2c(C)nsc2Nc2cnc3ccc(Cl)cc3n2)cn1 [Example 42, 5-[(7-Chloroquinoxalin-2-yl)amino]-N-(6-methoxypyridin-3-yl)-3-methyl-1,2-thiazole-4-carboxamide] |
| > 20000 | 5500 | COC(=O)c1ccc(Nc2snc(C)c2C(=O)Nc2ccc(OC)nc2)nc1 [Example 31, Methyl 6-({4-[(6-methoxypyridin-3-yl)carbamoyl]-3-methyl-1,2-thiazol-5-yl}amino)-nicotinate] |
| > 20000 | 260 | CCc1ccccc1NC(=O)c1c(C)nsc1Nc1nc(C)nc2ccccc12 [Example 35, N-(2-Ethylphenyl)-3-methyl-5-[(2-methylquinazolin-4-yl)amino]-1,2-thiazole-4-carboxamide] |
| 12000 | 2000 | Cc1nsc(Nc2cncc(N(C)C)n2)c1C(=O)Nc1ccc(F)c(F)c1 [Example 105, N-(3,4-Difluorophenyl)-5-{[6-(dimethylamino)pyrazin-2-yl]amino}-3-methyl-1,2-thiazole-4-carboxamide] |
| > 20000 | 160 | CCc1ccccc1NC(=O)c1c(C)nsc1Nc1cnc2ccc(Cl)cc2n1 [Example 41, 5-[(7-Chloroquinoxalin-2-yl)amino]-N-(2-ethylphenyl)-3-methyl-1,2-thiazole-4-carboxamide] |
| 18000 | 520 | Cc1nsc(Nc2ccn3nccc3n2)c1C(=O)Nc1ccc(F)c(F)c1 [Example 57, N-(3,4-Difluorophenyl)-3-methyl-5-(pyrazolo[1,5-a]pyrimidin-5-ylamino)-1,2-thiazole-4-carboxamide] |
